Experimental data taken from ChEMBL document CHEMBL1159142, “A convenient degradation of polyoxin D to uracil polyoxin C: access to key intermediates and synthesis of antifungal -aminoacyl derivatives of UPOC” (Bioorg Med Chem Lett, 1993).

Tested on: Candida albicans
Assay: Geometric mean minimum inhibitory concentration (GMMIC) for whole cell activity against Candida albicans
Format: functional

SMILES	GMMIC
NC(=O)OC[C@H](O)[C@@H](O)[C@H](N)C(=O)N[C@H](C(=O)O)[C@H]1O[C@@H](n2cc(C(=O)O)c(=O)[nH]c2=O)[C@H](O)[C@@H]1O	153 µg/mL
CSCCC(N)C(=O)N[C@H](C(=O)O)[C@H]1O[C@@H](n2ccc(=O)[nH]c2=O)[C@H](O)[C@@H]1O (some centres not stated)	49 µg/mL
CC[C@@H](O)C(N)C(=O)N[C@H](C(=O)O)[C@H]1O[C@@H](n2ccc(=O)[nH]c2=O)[C@H](O)[C@@H]1O (some centres not stated)	>2048 µg/mL
CC[C@H](C)C(N)C(=O)N[C@H](C(=O)O)[C@H]1O[C@@H](n2ccc(=O)[nH]c2=O)[C@H](O)[C@@H]1O (some centres not stated)	>2048 µg/mL
CC[C@@H](C)C(N)C(=O)N[C@H](C(=O)O)[C@H]1O[C@@H](n2ccc(=O)[nH]c2=O)[C@H](O)[C@@H]1O (some centres not stated)	44 µg/mL
N[C@@H](CCc1ccc(O)cc1)C(=O)N[C@H](C(=O)O)[C@H]1O[C@@H](n2ccc(=O)[nH]c2=O)[C@H](O)[C@@H]1O	128 µg/mL
N[C@H](C(=O)N[C@H](C(=O)O)[C@H]1O[C@@H](n2ccc(=O)[nH]c2=O)[C@H](O)[C@@H]1O)c1csc(O)c1	>2048 µg/mL
N[C@@H](Cc1c[nH]c2ccccc12)C(=O)N[C@H](C(=O)O)[C@H]1O[C@@H](n2ccc(=O)[nH]c2=O)[C@H](O)[C@@H]1O	2048 µg/mL
N[C@@H](Cc1c[nH]c2ccc(F)cc12)C(=O)N[C@H](C(=O)O)[C@H]1O[C@@H](n2ccc(=O)[nH]c2=O)[C@H](O)[C@@H]1O	>2048 µg/mL
COc1ccc2[nH]cc(C[C@H](N)C(=O)N[C@H](C(=O)O)[C@H]3O[C@@H](n4ccc(=O)[nH]c4=O)[C@H](O)[C@@H]3O)c2c1	>2048 µg/mL
N[C@@H](CCc1ccc(O)cn1)C(=O)N[C@H](C(=O)O)[C@H]1O[C@@H](n2ccc(=O)[nH]c2=O)[C@H](O)[C@@H]1O	118 µg/mL
NCC(=O)N[C@H](C(=O)O)[C@H]1O[C@@H](n2ccc(=O)[nH]c2=O)[C@H](O)[C@@H]1O	>2048 µg/mL
C[C@H](Cc1ccc(O)cn1)[C@H](N)C(=O)N[C@H](C(=O)O)[C@H]1O[C@@H](n2ccc(=O)[nH]c2=O)[C@H](O)[C@@H]1O	9.3 µg/mL
CC(C)[C@H](N)C(=O)N[C@H](C(=O)O)[C@H]1O[C@@H](n2ccc(=O)[nH]c2=O)[C@H](O)[C@@H]1O	87 µg/mL
C[C@H](Cc1ccc(O)cc1)[C@H](N)C(=O)N[C@H](C(=O)O)[C@H]1O[C@@H](n2ccc(=O)[nH]c2=O)[C@H](O)[C@@H]1O	35 µg/mL
C[C@@H](Cc1ccc(O)cn1)[C@H](N)C(=O)N[C@H](C(=O)O)[C@H]1O[C@@H](n2ccc(=O)[nH]c2=O)[C@H](O)[C@@H]1O	51 µg/mL
C=C[C@@H](C)C(N)C(=O)N[C@H](C(=O)O)[C@H]1O[C@@H](n2ccc(=O)[nH]c2=O)[C@H](O)[C@@H]1O (some centres not stated)	406 µg/mL
N[C@@H](Cc1c[nH]c2ccc(O)cc12)C(=O)N[C@H](C(=O)O)[C@H]1O[C@@H](n2ccc(=O)[nH]c2=O)[C@H](O)[C@@H]1O	27 µg/mL
NC(Cc1c[nH]c2ccc(O)cc12)C(=O)NC[C@H]1OC(n2ccc(=O)[nH]c2=O)[C@H](O)[C@@H]1O (some centres not stated)	>2048 µg/mL
NC(Cc1c[nH]c2ccc(O)cc12)C(=O)N[C@H](CO)[C@H]1OC(n2ccc(=O)[nH]c2=O)[C@H](O)[C@@H]1O (some centres not stated)	>2048 µg/mL
N[C@H](C(=O)O)[C@H]1OC(n2ccc(=O)[nH]c2=O)[C@H](O)[C@@H]1O (some centres not stated)	>2048 µg/mL
C[C@@H]([C@H](N)C(=O)N[C@H](C(=O)O)[C@H]1O[C@@H](n2ccc(=O)[nH]c2=O)[C@H](O)[C@@H]1O)[C@H](O)c1ccc(O)cn1 [NIKKOMYCIN]	6 µg/mL
